Test results as given in the NIST ThermoML archive (doi:10.1016/j.jct.2011.02.006).
± gives the expanded uncertainty stated by the source.

Columns and labels:
[1] = Molar enthalpy of transition or fusion; settings: Crystal; DSC
[2] = for viscosity / mass density: 101.33 kPa, Liquid; for viscosity: Falling or rolling sphere viscometry; for mass density: Vibrating tube method

CCCC[n+]1ccc2ccccc2c1.O=S(=O)([N-]S(=O)(=O)C(F)(F)F)C(F)(F)F [2-butylisoquinolinium bis[(trifluoromethyl)sulfonyl]amide]
Settings	Molar enthalpy of transition or fusion [kcal/mol]
[1]	11 ± 0.237

[2]
Settings	mass density [kg/m3]	viscosity [mPa·s]
323.2 K	1413.21 ± 6.9	71.07 ± 3.3
328.2 K	1408.78 ± 6.9	56.23 ± 2.5
333.2 K	1404.32 ± 6.8	45.14 ± 2.1
338.2 K	1399.88 ± 6.8	38.46 ± 1.7
343.2 K	1395.47 ± 6.7	32.08 ± 1.5
348.2 K	1391.06 ± 6.7	27.1 ± 1.2
353.2 K	1386.66 ± 6.7	23.02 ± 1
358.2 K	1382.26 ± 6.6	19.87 ± 0.9
363.2 K	1377.88 ± 6.6	16.14 ± 0.73

[2], DTA
Settings	Glass transition temperature [°C]	Normal melting temperature [°C]
Crystal	–	48 ± 0.39
Glass	-55.2 ± 1.1	–
